Article PMC3509626, “Antifungal Activity of (KW)n or (RW)n Peptide against Fusarium solani and Fusarium oxysporum” (International Journal of Molecular Sciences, 2012)
Like-named read-outs stand apart in the source and are kept apart here. Ends that are not written are not given here.

Tests used:
Format in all cases: cell-based
[1] = system: Fusarium oxysporum (KCTC 6076); conditions: KCTC 6076, 3 h
Method: (§1) Rink amide 4-methylbenzhydrylamine resin, fluoren-9-ylmethoxycarbonyl (Fmoc) amino acids, and other reagents for peptide synthesis were purchased from Calibiochem-Novabiochem (La Jolla, CA, USA). For the quantitative antifungal assay and fungicidal activity assay, the following fungal strains were obtained from the Korea Collection for Type Cultures (KCTC): F. solani (KCTC 6326) and F. oxysporum (KCTC 6076). Fungal cells were grown on PDA (potato dextrose agar) plate and subcultured for 2–3 weeks.
(§2) The spore suspension at a concentration of 5 × 10^4 spores/mL (80 μL) was transferred to a 96-well microtiter plate along with 20 μL of (KW)n or (RW)n peptides (n = 3, 4, and 5), melittin, or media to give final peptide concentrations of 4–32 μM. Plates were incubated for 3 h before the addition of 10 μL of 3-(4,5-dimethylthiazol-2-yl)-2,5-diphenyltetrazolium bromide (MTT; 5 mg/mL; Sigma). Plates were then incubated again for 16 h at room temperature, followed by the addition of 100 μL of MTT solvent (0.1 N HCl in anhydrous isopropyl alcohol). Presence of MTT/formazan was monitored spectrophotometrically by measuring the absorbance at 570 nm and then subtracting the background absorbance at 690 nm using a Versa-Max microplate Elisa reader (Molecular Devices, Sunnyvale, CA, USA). Each measurement was conducted in triplicate.

[2] = system: Fusarium solani (KCTC 6326); conditions: KCTC 6326, 3 h
Method: as §1, §2

[3] = system: Fusarium oxysporum (KCTC 6076); conditions: F. oxysporum, peptide at 64 μM, 24 h, 25 °C
Method: as §1
(§3) Fungal fragments, precultured in mycelial growth medium, were placed in the center of PDA plates, after which the cultures were incubated for 96 h at 25 °C in the dark. After incubation, spores were isolated from cultures growing in half-strength PDA. Spore concentrations were then adjusted to 5 × 10^4 spores/mL in half-strength PDA, after which 80 μL was added to the wells of sterile 96-well flat-bottomed microtiter plates along with 20 μL of peptide or media to give final concentrations of 1–64 μM. Several wells were kept untreated as a control to monitor fungal growth. Plates were incubated in the dark at 25 °C for 24 h before hyphal growth was determined by measuring optical density at 595 nm using a microtiter plate Elisa reader (Molecular Devices, Sunnyvale, CA, USA). Each test was performed in triplicate. Percentages of inhibition were then calculated (Figure 1) (0% inhibition indicates growth equal to control sample (only media)). The lowest concentration of peptide inhibiting fungal growth was monitored microscopically with an inverted light microscope (IX71, Olympus, Tokyo, Japan).

[4] = system: Fusarium solani (KCTC 6326); conditions: for growth inhibition (conidial germination and hyphal growth): F. solani, peptide at 64 μM, 24 h, 25 °C; for concentration at which antifungal effects were exhibited (below MIC): KCTC 6326, 24 h
Method: as §1, §3

| Molecule | cells killed [1] [%] | cells killed [2] [%] | growth inhibition (conidial germination and hyphal growth) [3] | growth inhibition (conidial germination and hyphal growth) [4] | concentration at which antifungal effects were exhibited (below MIC) [4] [µM] | further results |
| --- | --- | --- | --- | --- | --- | --- |
| N=C(N)NCCC[C@H](NC(=O)[C@H](Cc1c[nH]c2ccccc12)NC(=O)[C@H](CCCNC(=N)N)NC(=O)[C@H](Cc1c[nH]c2ccccc12)NC(=O)[C@H](CCCNC(=N)N)NC(=O)[C@H](Cc1c[nH]c2ccccc12)NC(=O)[C@H](CCCNC(=N)N)NC(=O)[C@H](Cc1c[nH]c2ccccc12)NC(=O)[C@@H](N)CCCNC(=N)N)C(=O)N[C@@H](Cc1c[nH]c2ccccc12)C(N)=O [(RW)5, RWRWRWRWRW-NH2] | 79 | 75 | – | – | – | – |
| KWKW-NH2 [(KW)2, tetrameric Lys-Trp repeat peptide amide] | – | – | did not inhibit growth | did not inhibit growth | – | growth inhibition (conidial germination and hyphal growth) ([3]; listed as (KW)2-NH2): non-inhibition; growth inhibition (conidial germination and hyphal growth) ([4]; listed as (KW)2-NH2): non-inhibition |
| KWKWKWKW-NH2 [(KW)4, KWKWKWKW-NH2] | 74 | 68 | – | – | 4 | – |
| KWKWKWKWKW-NH2 [(KW)5, KWKWKWKWKW-NH2] | 76 | 72 | – | – | – | – |
| RWRW-NH2 [(RW)2, tetrameric Arg-Trp repeat peptide amide] | – | – | did not inhibit growth | did not inhibit growth | – | growth inhibition (conidial germination and hyphal growth) ([3]; listed as (RW)2-NH2): non-inhibition; growth inhibition (conidial germination and hyphal growth) ([4]; listed as (RW)2-NH2): non-inhibition |
| RWRWRWRW-NH2 [(RW)4, RWRWRWRW-NH2] | 76 | 69 | – | – | 4 | – |
